Patent US20230321012A1 (priority 2021, published 2023)

Test: clinical
Method: Clinical Trial Outline. […] All solid tumor types are eligible for the trial. […] An expansion cohort was included at the RP2D level to confirm safety and tolerability of the combination. […] In Part 2, patients were treated by giving both agents twice daily (BID dosing schedule).
Plasma samples were analyzed for AMXT 1501 concentration via a LC/MS^2 procedure (MI-0028-DB-AB; Agilux Laboratories, Worcester, Massachusetts), and the resulting concentration versus time data were used to estimate individual PK parameters using noncompartmental analysis (NCA).

Compound: CCCCCCCCCCCCCCCC(=O)NCCCC[C@@H](N)C(=O)NCCCNCCCCNCCCN [AMXT 1501, D-lys(palmitoyl)-spermine]
- Tmax (human, plasma, oral, 400 mg, Tmax Mean, Part 1 Cohort 3, 400 mg QD, Day 1): 5 h
- Tmax (human, plasma, oral, 400 mg, Tmax Median, Part 1 Cohort 3, 400 mg QD, Cycle 1 Day 14): 5 h
- Tmax (human, plasma, oral, 400 mg, Tmax Median, Part 1 Cohort 3, 400 mg QD, Day 1): 5 h
- AUC(0-t) (human, plasma, oral, 1200 mg, AUC0-6 hr Mean, Part 1 Cohort 4, 1200 mg QD, Cycle 1 Day 1): 197 ng·h/mL
- AUC(0-t) (human, plasma, oral, 1200 mg, AUC0-6 hr Mean, Part 1 Cohort 4, 1200 mg QD, Cycle 1 Day 14): 1130 ng·h/mL
- AUC(0-t) (human, plasma, oral, 1200 mg, AUC0-6 hr Median, Part 1 Cohort 4, 1200 mg QD, Cycle 1 Day 1): 238 ng·h/mL
- AUC(0-t) (human, plasma, oral, 1200 mg, AUC0-6 hr Median, Part 1 Cohort 4, 1200 mg QD, Cycle 1 Day 14): 681 ng·h/mL
- AUC(0-t) (human, plasma, oral, 1200 mg, AUC0-t Mean, Part 1 Cohort 4, 1200 mg QD, Cycle 1 Day 1): 2730 ng·h/mL
- AUC(0-t) (human, plasma, oral, 1200 mg, AUC0-t Mean, Part 1 Cohort 4, 1200 mg QD, Cycle 1 Day 14): 4700 ng·h/mL
- AUC(0-t) (human, plasma, oral, 1200 mg, AUC0-t Median, Part 1 Cohort 4, 1200 mg QD, Cycle 1 Day 1): 831 ng·h/mL
- AUC(0-t) (human, plasma, oral, 1200 mg, AUC0-t Median, Part 1 Cohort 4, 1200 mg QD, Cycle 1 Day 14): 3490 ng·h/mL
- Cmax (human, plasma, oral, 1200 mg, Cmax Mean, Part 1 Cohort 4, 1200 mg QD, Cycle 1 Day 1): 104 ng/mL
- Cmax (human, plasma, oral, 1200 mg, Cmax Mean, Part 1 Cohort 4, 1200 mg QD, Cycle 1 Day 14): 276 ng/mL
- Cmax (human, plasma, oral, 1200 mg, Cmax Median, Part 1 Cohort 4, 1200 mg QD, Cycle 1 Day 1): 71.2 ng/mL
- Cmax (human, plasma, oral, 1200 mg, Cmax Median, Part 1 Cohort 4, 1200 mg QD, Cycle 1 Day 14): 227 ng/mL
- Tmax (human, plasma, oral, 1200 mg, Tmax Mean, Part 1 Cohort 4, 1200 mg QD, Cycle 1 Day 1): 11.3 h
- Tmax (human, plasma, oral, 1200 mg, Tmax Mean, Part 1 Cohort 4, 1200 mg QD, Cycle 1 Day 14): 6 h
- Tmax (human, plasma, oral, 1200 mg, Tmax Median, Part 1 Cohort 4, 1200 mg QD, Cycle 1 Day 1): 6 h
- Tmax (human, plasma, oral, 1200 mg, Tmax Median, Part 1 Cohort 4, 1200 mg QD, Cycle 1 Day 14): 6 h
- AUC (human, plasma, oral, 1800 mg): 14200 ng·h/mL
- AUC(0-t) (human, plasma, oral, 1800 mg, AUC0-6 hr Mean, Part 1 Cohort 5, 1800 mg QD, Cycle 1 Day 1): 750 ng·h/mL
- AUC(0-t) (human, plasma, oral, 1800 mg, AUC0-6 hr Mean, Part 1 Cohort 5, 1800 mg QD, Cycle 1 Day 14): 3110 ng·h/mL
- AUC(0-t) (human, plasma, oral, 1800 mg, AUC0-6 hr Mean, Part 1 Cohort 5, 1800 mg QD, Cycle 2 Day 14, n=1): 7240 ng·h/mL
- AUC(0-t) (human, plasma, oral, 1800 mg, AUC0-6 hr Median, Part 1 Cohort 5, 1800 mg QD, Cycle 1 Day 1): 662 ng·h/mL
- AUC(0-t) (human, plasma, oral, 1800 mg, AUC0-6 hr Median, Part 1 Cohort 5, 1800 mg QD, Cycle 1 Day 14): 3020 ng·h/mL
- AUC(0-t) (human, plasma, oral, 1800 mg, AUC0-6 hr Median, Part 1 Cohort 5, 1800 mg QD, Cycle 2 Day 14, n=1): 7240 ng·h/mL
- AUC(0-t) (human, plasma, oral, 1800 mg, AUC0-t Mean, Part 1 Cohort 5, 1800 mg QD, Cycle 1 Day 1): 10200 ng·h/mL
- AUC(0-t) (human, plasma, oral, 1800 mg, AUC0-t Mean, Part 1 Cohort 5, 1800 mg QD, Cycle 1 Day 14): 14200 ng·h/mL
- AUC(0-t) (human, plasma, oral, 1800 mg, AUC0-t Mean, Part 1 Cohort 5, 1800 mg QD, Cycle 2 Day 14, n=1): 33700 ng·h/mL
- AUC(0-t) (human, plasma, oral, 1800 mg, AUC0-t Median, Part 1 Cohort 5, 1800 mg QD, Cycle 1 Day 1): 12700 ng·h/mL
- AUC(0-t) (human, plasma, oral, 1800 mg, AUC0-t Median, Part 1 Cohort 5, 1800 mg QD, Cycle 1 Day 14): 12800 ng·h/mL
- AUC(0-t) (human, plasma, oral, 1800 mg, AUC0-t Median, Part 1 Cohort 5, 1800 mg QD, Cycle 2 Day 14, n=1): 33700 ng·h/mL
- Cmax (human, plasma, oral, 1800 mg, Cmax Mean, Part 1 Cohort 5, 1800 mg QD, Cycle 1 Day 1): 367 ng/mL
- Cmax (human, plasma, oral, 1800 mg, Cmax Mean, Part 1 Cohort 5, 1800 mg QD, Cycle 1 Day 14): 794 ng/mL
- Cmax (human, plasma, oral, 1800 mg, Cmax Mean, Part 1 Cohort 5, 1800 mg QD, Cycle 2 Day 14, n=1): 1950 ng/mL
- Cmax (human, plasma, oral, 1800 mg, Cmax Median, Part 1 Cohort 5, 1800 mg QD, Cycle 1 Day 1): 374 ng/mL
- Cmax (human, plasma, oral, 1800 mg, Cmax Median, Part 1 Cohort 5, 1800 mg QD, Cycle 1 Day 14): 766 ng/mL
- Cmax (human, plasma, oral, 1800 mg, Cmax Median, Part 1 Cohort 5, 1800 mg QD, Cycle 2 Day 14, n=1): 1950 ng/mL
- Tmax (human, plasma, oral, 1800 mg, Tmax Mean, Part 1 Cohort 5, 1800 mg QD, Cycle 1 Day 14): 5.5 h
- Tmax (human, plasma, oral, 1800 mg, Tmax Mean, Part 1 Cohort 5, 1800 mg QD, Cycle 2 Day 14, n=1): 6 h
- Tmax (human, plasma, oral, 1800 mg, Tmax Median, Part 1 Cohort 5, 1800 mg QD, Cycle 1 Day 1): 6 h
- Tmax (human, plasma, oral, 1800 mg, Tmax Median, Part 1 Cohort 5, 1800 mg QD, Cycle 1 Day 14): 6 h
- Tmax (human, plasma, oral, 1800 mg, Tmax Median, Part 1 Cohort 5, 1800 mg QD, Cycle 2 Day 14, n=1): 6 h
- Cmax (human, plasma, oral, 1800 mg, average Cmax, plasma AMXT 1501, Part 1 Cohort 5, 1,800 mg, repeat dosing Day 14, n=4): 794 ng/mL
- AUC(0-t) (human, plasma, oral, AUC0-6 hr Mean, Part 1 Cohort 1, 80 mg QD, Cycle 1 Day 28, +DFMO 500 mg/day): 60.5 ng·h/mL
- AUC(0-t) (human, plasma, oral, AUC0-6 hr Mean, Part 1 Cohort 2, 160 mg QD, Cycle 1 Day 28, +DFMO 500 mg/day): 88.6 ng·h/mL
- AUC(0-t) (human, plasma, oral, AUC0-6 hr Mean, Part 1 Cohort 3, 400 mg QD, Cycle 1 Day 28, +DFMO 500 mg/day): 234 ng·h/mL
- AUC(0-t) (human, plasma, oral, AUC0-6 hr Mean, Part 1 Cohort 5, 1800 mg QD, Cycle 1 Day 28, +DFMO 500 mg/day): 1860 ng·h/mL
- AUC(0-t) (human, plasma, oral, AUC0-6 hr Median, Part 1 Cohort 1, 80 mg QD, Cycle 1 Day 28, +DFMO 500 mg/day): 62.9 ng·h/mL
- AUC(0-t) (human, plasma, oral, AUC0-6 hr Median, Part 1 Cohort 2, 160 mg QD, Cycle 1 Day 28, +DFMO 500 mg/day): 84.8 ng·h/mL
- AUC(0-t) (human, plasma, oral, AUC0-6 hr Median, Part 1 Cohort 3, 400 mg QD, Cycle 1 Day 28, +DFMO 500 mg/day): 93.8 ng·h/mL
- AUC(0-t) (human, plasma, oral, AUC0-6 hr Median, Part 1 Cohort 5, 1800 mg QD, Cycle 1 Day 28, +DFMO 500 mg/day): 1430 ng·h/mL
- AUC(0-t) (human, plasma, oral, AUC0-t Mean, Part 1 Cohort 1, 80 mg QD, Cycle 1 Day 28, +DFMO 500 mg/day): 169 ng·h/mL
- AUC(0-t) (human, plasma, oral, AUC0-t Mean, Part 1 Cohort 2, 160 mg QD, Cycle 1 Day 28, +DFMO 500 mg/day): 150 ng·h/mL
- AUC(0-t) (human, plasma, oral, AUC0-t Mean, Part 1 Cohort 3, 400 mg QD, Cycle 1 Day 28, +DFMO 500 mg/day): 791 ng·h/mL
- AUC(0-t) (human, plasma, oral, AUC0-t Mean, Part 1 Cohort 5, 1800 mg QD, Cycle 1 Day 28, +DFMO 500 mg/day): 7370 ng·h/mL
- AUC(0-t) (human, plasma, oral, AUC0-t Median, Part 1 Cohort 1, 80 mg QD, Cycle 1 Day 28, +DFMO 500 mg/day): 62.9 ng·h/mL
- AUC(0-t) (human, plasma, oral, AUC0-t Median, Part 1 Cohort 2, 160 mg QD, Cycle 1 Day 28, +DFMO 500 mg/day): 112 ng·h/mL
- AUC(0-t) (human, plasma, oral, AUC0-t Median, Part 1 Cohort 3, 400 mg QD, Cycle 1 Day 28, +DFMO 500 mg/day): 422 ng·h/mL
- AUC(0-t) (human, plasma, oral, AUC0-t Median, Part 1 Cohort 5, 1800 mg QD, Cycle 1 Day 28, +DFMO 500 mg/day): 6920 ng·h/mL
- Cmax (human, plasma, oral, Cmax Mean, Part 1 Cohort 1, 80 mg QD, Cycle 1 Day 28, +DFMO 500 mg/day): 16.4 ng/mL
- Cmax (human, plasma, oral, Cmax Mean, Part 1 Cohort 2, 160 mg QD, Cycle 1 Day 28, +DFMO 500 mg/day): 23.7 ng/mL
- Cmax (human, plasma, oral, Cmax Mean, Part 1 Cohort 3, 400 mg QD, Cycle 1 Day 28, +DFMO 500 mg/day): 55.8 ng/mL
- Cmax (human, plasma, oral, Cmax Mean, Part 1 Cohort 5, 1800 mg QD, Cycle 1 Day 28, +DFMO 500 mg/day): 401 ng/mL
- Cmax (human, plasma, oral, Cmax Median, Part 1 Cohort 1, 80 mg QD, Cycle 1 Day 28, +DFMO 500 mg/day): 15.1 ng/mL
- Cmax (human, plasma, oral, Cmax Median, Part 1 Cohort 2, 160 mg QD, Cycle 1 Day 28, +DFMO 500 mg/day): 23.2 ng/mL
- Cmax (human, plasma, oral, Cmax Median, Part 1 Cohort 3, 400 mg QD, Cycle 1 Day 28, +DFMO 500 mg/day): 20.3 ng/mL
- Cmax (human, plasma, oral, Cmax Median, Part 1 Cohort 5, 1800 mg QD, Cycle 1 Day 28, +DFMO 500 mg/day): 321 ng/mL
- Tmax (human, plasma, oral, Tmax Mean, Part 1 Cohort 1, 80 mg QD, Cycle 1 Day 28, +DFMO 500 mg/day): 11.3 h
- Tmax (human, plasma, oral, Tmax Mean, Part 1 Cohort 2, 160 mg QD, Cycle 1 Day 28, +DFMO 500 mg/day): 4.5 h
- Tmax (human, plasma, oral, Tmax Mean, Part 1 Cohort 3, 400 mg QD, Cycle 1 Day 28, +DFMO 500 mg/day): 11.3 h
- Tmax (human, plasma, oral, Tmax Mean, Part 1 Cohort 5, 1800 mg QD, Cycle 1 Day 28, +DFMO 500 mg/day): 4.67 h
- Tmax (human, plasma, oral, Tmax Median, Part 1 Cohort 1, 80 mg QD, Cycle 1 Day 28, +DFMO 500 mg/day): 6 h
- Tmax (human, plasma, oral, Tmax Median, Part 1 Cohort 2, 160 mg QD, Cycle 1 Day 28, +DFMO 500 mg/day): 4 h
- Tmax (human, plasma, oral, Tmax Median, Part 1 Cohort 3, 400 mg QD, Cycle 1 Day 28, +DFMO 500 mg/day): 6 h
- Tmax (human, plasma, oral, Tmax Median, Part 1 Cohort 5, 1800 mg QD, Cycle 1 Day 28, +DFMO 500 mg/day): 4 h
- Cmax (human, plasma, oral, mean Cmax, plasma AMXT 1501, n=9 patients, 1,200 mg daily split BID plus 1,000 mg daily DFMO split BID): 493 ng/mL
- Cmax (human, plasma, oral, plasma AMXT 1501 Cmax with no DLTs observed, a couple of adult patients): > 1000 ng/mL
- Cmax (human, plasma, oral, plasma Cmax, AMXT 1501, melanoma patient, 1,200 mg daily split BID plus 1,000 mg daily DFMO): 239 ng/mL
- effect of co-administration of DFMO on PK of AMXT 1501 (patients, DFMO co-administration): no obvious effect
- dose dependence of mean AMXT 1501 exposure (single or repeat PO dosing, dose levels of 160 mg and higher): increased in a dose-dependent manner
- plasma AMXT 1501 level achieved (three patients in First-in-Human trial): 1,000 ng/mL
